This is an account of results in patent US20080255206A1, “Rxr Agonists and Antagonists, Alone or in Combination with Ppar Ligands, in the Treatment of Metabolic and Cardiovascular Diseases” (priority 2005, published 2008).

One series concerns c-Jun mRNA expression. In words: Semi chronic inflammation of mouse ears, c-Jun mRNA (northern blot). Format: in vivo, C57BL/6 mice. The protocol: (§1) […] mice of the C57BL/6 strain are used. Inflammation is induced on mouse ears with either AtRA, 9-cis RA or TPA by topical application. Inflammation is measured objectively by determination of the activity of myeloperoxidase (MPO) being directly correlated to the infiltration of polymorphonuclear white blood cells and by the determination of mRNA expression of c-jun, a protein implicated in the AP-1 transduction pathway according to known methods, see e.g. P. L. Stanley et al., Skin Pharmacol. 4, 262-271 (1991) (MPO assay), N. Basset-Sequin et al., J. Invest. Dermatol. 94, 418-422 (1990), F. J. Rauscher et al., Cell 52, 471-480 […], P. Sassone-Corn et al., Nature 326, 507-510 (1987), and M. Pfahl, Endocr. Rev. 14, 651-658, 1993, which are incorporated by reference regarding the experimental method.
(§2) The anti-inflammatory effect of topical RXR antagonists is tested by determination of myeloperoxidase activity in % of vehicle controls. The effect of the RXR antagonist compound 15 is also compared with the well known anti-inflammatory effect of the two corticosteroids, clobetasol dipropionate and betamethasone propionate. For induction of inflammation, AtRA and TPA are applied topically to the skin and the administration of the test compounds, the RXR antagonist compound 15 and the two corticosteroids are given in the following order, according to the schedule, described in: Skin Pharmacol 1991; 4 (4): 262-271, Stanley P L. et.al.: RA or TPA is administered on days 0, 2, 4, 7 and 9, compound 15 or corticosteroids are administered twice daily on day 7, day 8 and day 9 and once on day 10 in the morning. The mice are sacrificed on day 10 in the afternoon.
In the same experiment, the expression of c-Jun mRNA is determined by northern blot and expressed in percent of the vehicle controls.

The subject of series [1] is myeloperoxidase (MPO) activity. The series is described as follows: Semi chronic inflammation of mouse ears, MPO activity. The class given is in vivo, C57BL/6 mice. Conditions: 11 d. The protocol: as §1
(§3) In the “acute inflammation” test, mice are treated topically (epicutaneously), orally or intraperitoneally, daily for 4 days. In the “semi chronic inflammation” test, mice are treated topically according to the schedules given below. For each experiment, a group of at least 4 mice of both sexes are used in the defined condition, regarding placebo, vehicle control, compound, topical formulation, oral formulation, dosage and concentration. The topical vehicle consists of ethanol/PEG 400/water (3:1:1).
as §2

Series [2] concerns myeloperoxidase (MPO) activity. In words: Acute inflammation of mouse ears, MPO activity. Conditions: TPA 0.005% alone, topical, 4 d. The class given is in vivo, C57BL/6 mice. The protocol:
as §1, §3
The anti-inflammatory effect of topical RXR antagonist compound 15 is tested by determination of myeloperoxidase activity in % of vehicle treated controls. For induction of inflammation 9-cis RA or TPA are applied topically to the skin, daily for 4 days. The RXR antagonist compound 15 (see Table 1) is administered topically one hour after the application of the inflammation inducing agent. The mice are sacrified 24 hours after the last treatment.

The test system of the next series is humans. To be noted: clinical trials by other authors; cited from earlier work.
A further series has as its target T1, RXRγ (Homo sapiens, UniProt P48443).
T1 sequence (P48443 1-463): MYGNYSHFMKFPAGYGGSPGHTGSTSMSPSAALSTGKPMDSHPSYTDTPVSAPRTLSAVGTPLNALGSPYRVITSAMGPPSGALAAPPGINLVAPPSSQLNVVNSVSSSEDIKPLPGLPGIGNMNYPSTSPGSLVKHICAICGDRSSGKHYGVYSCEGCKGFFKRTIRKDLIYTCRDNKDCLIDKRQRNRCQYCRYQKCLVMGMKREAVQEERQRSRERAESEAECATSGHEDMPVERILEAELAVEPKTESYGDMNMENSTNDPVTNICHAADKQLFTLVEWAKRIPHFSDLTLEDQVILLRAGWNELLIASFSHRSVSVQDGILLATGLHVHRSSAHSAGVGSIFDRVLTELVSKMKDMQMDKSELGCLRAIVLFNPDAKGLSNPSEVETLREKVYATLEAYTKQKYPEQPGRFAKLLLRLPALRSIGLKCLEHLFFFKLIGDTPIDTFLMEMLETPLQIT
The series is described as follows: Retinoid binding assay, RXRγ. Also on record: made in house; host or cells: E. coli. To be noted: [3H] 9-cis retinoic acid 20 nM; read-out: Binding Affinity IC50 RXR γ. An excerpt:
The DEF domains of RAR's and the full length RXR's, expressed in E.coli, are used to measure competitive retinoid binding. […] 9-cis retinoic acid (for RXR's), respectively. […] Separation of bound from free radioactivity is achieved by charcoal/dextran (RAR's) or by desalting columns (RXR's). […] Retinoid Activation Assays

[3] abbreviates: TPA 0.005% + test compound 0.05%.
Where [4] appears, read: TPA 0.005% + test compound 0.05% topical.

Turning to betamethasone propionate, the “c-Jun mRNA expression (% of vehicle treated mice)” value with c-Jun mRNA expression (setting [3]) is 24 % of vehicle treated mice. In series [1] (setting [4]), the “MPO activity (% vehicle treated mice)” value was 257 ± 38 % vehicle treated mice.
In the same order, the values of `CCC(=O)O[C@]1(C(=O)CCl)[C@@H](C)C[C@H]2[C@@H]3CCC4=CC(=O)C=C[C@]4(C)[C@@]3(F)[C@@H](O)C[C@@]21C` are 43 % of vehicle treated mice and 239 ± 43 % vehicle treated mice.
For `CCCCCCCCCCCCCC(=O)O[C@@H]1[C@@H](C)[C@@]2(O)[C@@H](C=C(CO)C[C@]3(O)C(=O)C(C)=C[C@@H]23)[C@@H]2C(C)(C)[C@]12OC(C)=O` [TPA, 12-O-tetradecanoylphorbol-13-acetate], the “c-Jun mRNA expression (% of vehicle treated mice)” value in the series on c-Jun mRNA expression (TPA 0.005% alone) was 163 % of vehicle treated mice. For the same molecule, the “MPO activity (% vehicle treated mice)” value was 376 ± 72 % vehicle treated mice in series [2] and 572 ± 61 % vehicle treated mice in series [1] (TPA 0.005% alone, topical).
`CC1=C(/C=C/C(C)=C/C=C/C(C)=C/C(=O)O)C(C)(C)CCC1` [At RA, all-trans retinoic acid]: the “MPO activity (% vehicle treated mice)” value in series [1] (At RA 0.05% alone, topical) was found to be 1371 ± 345 % vehicle treated mice.
On to `Cc1cc2c(cc1C1(c3ccc(C(=O)O)cn3)CC1)C(C)(C)CCC2(C)C` [Compound 3, 6-[1-(3,5,5,8,8-Pentamethyl-5,6,7,8-tetrahydro-naphthalen-2yl)-cyclopropyl]-nicotinic acid, reference compound], for which the “Serum lipids in clinical trials (humans)” value in the series on humans is recorded as “marked triglyceridemia”. Further, at RXRγ, the IC50 is 90 nM.

For orientation: IC50 means the point on the concentration scale where inhibition reaches its midpoint.
